Results: patent US20190015423A1, “REGULATION OF GENE EXPRESSION BY MODULATING PRIMARY CILIA LENGTH” (THE TRUSTEES OF COLUMBIA UNIVERSITY IN THE CITY OF NEW YORK, priority 2016, published 2019)
Entries after “also recorded” stand apart in the source; their conditions may differ. Structures can show the parent of a compound that is named as a salt.

Legend:
Adenylyl cyclase = Adenylyl cyclase activity: forskolin stimulated cAMP ELISA; format: cell-based
Description: Adenylyl cyclase activity was quantified by cAMP ELISA (Enzo). […] Cells were stimulated by 10 μM forskolin (Sigma) or DMSO vehicle control for 20 minutes prior to lysis with 0.1 M HCl. Cell lysate was analyzed according to manufacturer's protocol, and normalized to total protein quantified by BCA (Thermo Fisher). All samples and standards were run in duplicate.

[1] = fenoldopam 100 mg/kg, rat model (Dalmas et al. 2008); cited from earlier work
MC3T3 osteoblasts = assay: Flow-induced paracrine signaling: conditioned media of treated osteocytes on osteoblasts (OPN mRNA); format: cell-based; details: osteocytes treated with fenoldopam 10 μM 16 hours; 12 hrs flow; osteoblasts cultured 24 hours
MLO-Y4 osteocytes = assay: Oscillatory fluid flow-induced mRNA expression (COX-2, OPN, AC6), flow vs no flow; format: cell-based; details: for COX-2 mRNA response to flow (in words) / OPN mRNA response to flow (in words): fenoldopam 16 hours, flow 1 hour, relative to GAPDH
C57Bl/6 mice = assay: Load-induced bone formation: compressive ulnar loading and dynamic histomorphometry; format: in vivo; details: ulnar load final 3 days
From the text: All data are shown in reference to the non-loaded contralateral limb as control. […] On day 4-6 the mice were subjected to daily axial compressive ulnar loading. Mice were placed under isoflurane anesthesia and forelimbs were placed between two loading cups controlled by an electromagnetic loading system with feedback control (Bose, ELF 3220). An initial 0.1 N preload was applied, followed by 3 N of cyclic compression applied with a 2 Hz sine wave for 120 cycles, generating a strain gage verified average peak deformation of 1895 μstrain. On day 8, mice were subcutaneously injected with calcein (10 mg/kg) and alizarin red (70 mg/kg) on day 12. Mice were euthanized on day 18 and prepared for dynamic histomorphometric analysis.
Compressive ulnar loading was applied on days 5-7 to mechanically stimulate bone (3N at 2 Hz for 120 cycles) [9].
On the final three days of drug or control injection, animals were also subjected to compressive ulnar load at a peak load of 3 N using a 2 Hz sine wave for 120 cycles, as previously described (Temiyasathit, S. et al. PLoS One 7, (2012); Lee, K. L. et al. FASEB J. 28, 1157-1165 (2014)). Contralateral limbs served as a non-loaded control. 2 days following load, mice were treated with 10 mg/kg calcein (Sigma), and 4 days later 70 mg/kg alizarin (Sigma), with mice being sacrificed 6 days later.
Dynamic histomorphometry was performed as previously described, measuring the amount and separation of calcein and alizarin labels to quantify mineralizing surface (rMS/BS), mineral apposition rate (rMAR), and bone formation rate (rBFR/BS) relative to non-loaded controls (Temiyasathit, S. et al. PLoS One 7, (2012); Lee, K. L. et al. FASEB J. 28, 1157-1165 (2014)). Left and right ulnae were dissected and preserved in ethanol. Samples were then infiltrated with methyl methacrylate, and embedded in methyl methacrylate and benzoyl peroxide. Transverse sections of the ulnar midshaft were imaged on a laser scanning confocal microscope (Olympus Fluoview FV1000). Measurements of outer bone perimeter (OP), single label perimeter (SL), double label perimeter (DL), and double label area (DA) were made in ImageJ. The mineralizing surface relative to outer bone surface (MS/BS), mineral apposition rate (MAR), and bone formation rate (BFS/BS) were calculated as:
Relative measurements—rMS/BS, rMAR, rBFR/BS—were determined by subtracting non-loaded from loaded ulnae to display differences due to mechanical load.

[2] = Adverse effects of drug treatment: body, kidney and liver weight, H&E histology, bone ultrastructure, injection site; format: in vivo, mice; details: fenoldopam 20 mg/kg; for visible bone ultrastructure: loaded ulnae
From the text: Mice were housed in the Columbia University Barrier Facility and fed ad libidum. All procedures performed were in accordance with Columbia University Institutional Animal Care and Use Committee guidelines.
Kidneys and liver were dissected from animals, weighed, fixed in 10% formalin, and stored in 70% ethanol before being paraffin embedded. 5 μm thick longitudinal sections were made, and samples were stained with hematoxylin and eosin to visualize tissue structure. Images were captured at 4× magnification. Kidney function was broadly examined by urine creatinine concentration. […] Hydrophobic sand (Lab Sand) was used for urine sample collection, and analysis was performed using a total urine creatinine kit (Cayman Chemical).

[3] = μCT analysis of non-loaded ulnae; format: in vivo, mice; details: for μCT: normal bone properties / microarchitecture (in words): 7 days, non-loaded ulnar midshaft
Description: Non-loaded ulnae were used for μCT analysis. Samples were imaged with a Scanco ViaCT 80 at 10.5 μm isotropic resolution. Images were processed using a Gaussian filter and global threshold to segment bone volumes. Ulnar midshafts were imaged and used to assess cortical bone, while the proximal epiphysis was used to examine ulnar trabecular bone. Cortical bone analysis was performed to determine total area, cortical area, marrow area, bone volume fraction (BV/TV), cortical thickness, moment of inertia (Imax and Imin), and bone mineral density (BMD). Trabecular analyses included BV/TV, connectivity density, trabecular number, trabecular thickness, trabecular spacing, and BMD.

[4] = 10 μM fenoldopam 16 h, flow 1 hr, fold change flow over no flow
[5] = fenoldopam on AC6 siRNA treated cells
[6] = fenoldopam 20 mg/kg s.c. 7 consecutive days, relative to non-loaded limb, vs vehicle
[7] = fenoldopam 20 mg/kg s.c. 7 consecutive days, relative to non-loaded limb, vs vehicle, listed as Fenoldopam
[8] = fenoldopam 50 mg/kg (Fen-High) s.c. 7 consecutive days
[9] = Table 1, ulnar midshaft, Female

In the case of `Oc1ccc(C2CNCCc3c2cc(O)c(O)c3Cl)cc1` (stereo not shown) [fenoldopam, Fenoldopam mesylate], the “enhancement of forskolin stimulated cAMP response compared to vehicle control” value (Adenylyl cyclase; 10 μM fenoldopam 16 hours, then 10 μM forskolin 20 minutes) is listed as 130%±25%, the “cAMP response to forskolin stimulation (in words)” value (Adenylyl cyclase; fenoldopam 16 h, then forskolin 20 min) is listed as “significantly increases” and the vasotoxicity [1] is listed as “vasotoxic”. The “osteoblast osteogenic gene (osteopontin, OPN) expression after conditioned media from flow-stimulated osteocytes” value (MC3T3 osteoblasts) was “increased; also recorded: significantly enhanced”, the “elevated flow-induced COX-2 mRNA expression compared to unlengthened controls” value (MLO-Y4 osteocytes; [4]) was 124%±27% and the “elevated flow-induced OPN mRNA expression compared to unlengthened controls” value (MLO-Y4 osteocytes; [4]) was 48%±8%. For the same compound, the “COX-2 mRNA response to flow (in words)” value (MLO-Y4 osteocytes) was “significant increases”, the “OPN mRNA response to flow (in words)” value (MLO-Y4 osteocytes) was “significant increases” and the “COX-2 mRNA response to flow (in words)” value (MLO-Y4 osteocytes; listed as Fenoldopam) was “increased”. For the same compound, the “OPN mRNA response to flow (in words)” value (MLO-Y4 osteocytes; listed as Fenoldopam) was “increased”, the “AC6 mRNA expression in AC6 siRNA treated cells under flow” value (MLO-Y4 osteocytes; [5]) was “not recovered” and the “flow-induced OPN mRNA expression in AC6 siRNA treated cells” value (MLO-Y4 osteocytes; [5]) was “not recovered”. For the same compound, the “flow stimulated OPN expression in IFT88 siRNA treated cells (in words)” value (MLO-Y4 osteocytes; fenoldopam on IFT88 siRNA treated cells) was “able to recover”, the “recovery of flow-induced OPN response compared to IFT88 siRNA and vehicle treated cells” value (MLO-Y4 osteocytes; fenoldopam on IFT88 siRNA treated cells, flow 1 h) was 52%±1% and the “bone formation rate (rBFR/BS)” value (C57Bl/6 mice; [6]) was “significantly increased; also recorded: significant increases; also recorded: significantly enhanced”. For the same compound, the “mineral apposition rate (rMAR)” value (C57Bl/6 mice; [6]) was “significantly increased; also recorded: significant increases”, the “mineralizing surface (rMS/BS)” value (C57Bl/6 mice; [6]) was “remained unchanged; also recorded: neither fenoldopam concentration elicited a significant increase” and the “bone formation rate (rBFR/BS)” value (C57Bl/6 mice; [7]) was “enhances”. For the same compound, the “mineralizing surface (rMS/BS)” value (C57Bl/6 mice; [7]) was “no effect”, the “bone formation rate (rBFR/BS)” value (C57Bl/6 mice; [8]) was “no statistically significant difference; also recorded: no effect; also recorded: elicited no bone formation response” and the “mineral apposition rate (rMAR)” value (C57Bl/6 mice; [8]) was “no statistically significant difference; also recorded: no effect”. The “mineralizing surface (rMS/BS)” value (C57Bl/6 mice; [8]) was “no statistically significant difference; also recorded: no effect”, the visible bone ultrastructure ([2]; 7 days, vs vehicle control) was “no difference” and the visible bone ultrastructure ([2]; 7 days, vs vehicle control, listed as Fenoldopam) was “no qualitative change”. For the same compound, the “kidney morphology assessed by H&E stain” value ([2]; 7 days, vs vehicle control) was “remained unchanged”, the kidney weight ([2]; 7 days, vs vehicle control) was “remained unchanged” and the mouse weight ([2]; 7 days, vs vehicle control) was “remained unchanged”. The kidney histology ([2]; preliminary study) was “no abnormalities or cysts”, the “kidney weight to body mass measurements” value ([2]; preliminary study) was “no different than vehicle controls” and the Cortical area [3, 9] was 0.310 ± 0.003 mm^2. The Cortical thickness [3, 9] was 0.173 ± 0.006 mm, the Imax [3, 9] was 0.029 ± 0.001 mm^4 and the Imin [3, 9] was 0.005 ± 0.000 mm^4. For the same compound, the Porosity [3, 9] was 0.131 ± 0.006%, the Total area ([3]; Table 1, ulnar midshaft, Female, fenoldopam 20 mg/kg 7 days) was 0.357 ± 0.005 mm^2 and the Cortical area ([3]; Table 1, ulnar midshaft, Male) was 0.320 ± 0.023 mm^2. It also gave a Cortical thickness ([3]; Table 1, ulnar midshaft, Male) of 0.169 ± 0.009 mm, an Imax ([3]; Table 1, ulnar midshaft, Male) of 0.033 ± 0.007 mm^4 and an Imin ([3]; Table 1, ulnar midshaft, Male) of 0.004 ± 0.001 mm^4. It also gave a Porosity ([3]; Table 1, ulnar midshaft, Male) of 0.134 ± 0.003%, a Total area ([3]; Table 1, ulnar midshaft, Male, fenoldopam 20 mg/kg 7 days) of 0.370 ± 0.027 mm^2 and a Cortical area ([3]; Table 5, cortical, Female) of 0.310 ± 0.003 mm^2. For the same compound, the Cortical thickness ([3]; Table 5, cortical, Female) was 0.173 ± 0.006 mm, the Imax ([3]; Table 5, cortical, Female) was 0.029 ± 0.001 mm^4 and the Imin ([3]; Table 5, cortical, Female) was 0.005 ± 0.000 mm^4. For the same compound, the Cortical area ([3]; Table 5, cortical, Male) was 0.320 ± 0.009 mm^2, the Cortical thickness ([3]; Table 5, cortical, Male) was 0.169 ± 0.004 mm and the Imax ([3]; Table 5, cortical, Male) was 0.033 ± 0.003 mm^4. The Imin ([3]; Table 5, cortical, Male) was 0.004 ± 0.001 mm^4, the Marrow area ([3]; Table 5, cortical, Male) was 0.049 ± 0.001 mm^2 and the Total area ([3]; Table 5, ulnar midshaft - cortical, non-loaded, Female, 20 mg/kg fenoldopam) was 0.357 ± 0.005 mm^2. The Total area ([3]; Table 5, ulnar midshaft - cortical, non-loaded, Male, 20 mg/kg fenoldopam) was 0.370 ± 0.010 mm^2, the “μCT: normal bone properties / microarchitecture (in words)” value ([3]; fenoldopam 20 mg/kg) was “no change; also recorded: no difference” and the “μCT: normal bone properties / microarchitecture (in words)” value ([3]; fenoldopam 20 mg/kg, listed as Fenoldopam) was “did not result in any change”. For the same compound, the “μCT: normal cortical bone properties including thickness, area, and moment of inertia” value ([3]; fenoldopam 20 mg/kg, preliminary study, data not shown) was “no change”.
